Structures can show the parent of a compound that is named as a salt.

Here are results for six molecules from patent publication US20090143430A1, “ERYTHROPOIETIN PRODUCTION ACCELERATOR” (Kowa Co., Ltd., priority 2002, published 2009).

Series [1] has as its system Hep3B cells. The series is described as follows: EPO produced in Hep3B cell culture medium under 1% oxygen, ELISA kit (Test Example 2). The series is classed as cell-based. The following applies: 24 hrs, 100 nM, control 8.1. How it is done:
Hep3B cells were inoculated by 1×10^6 on each of 6 cm dishes, and then cultured for 24 hrs. As a culture medium, 3 mL of DMEM/10% FCS was used. The culture medium was exchanged and the compounds of each of Preparation Examples 13, 23, 29, 36, and 114 were added such that the content thereof was 100 nM final concentration, and they were transferred into the atmosphere of 1% oxygen at 37° C. for further 24 hrs culture thereof. The supernatant of the culture was recovered, and the amount of EPO was measured by ELISA kit (product of Roche Diagnostics) (two cases in each group). Further, cell extract was prepared and protein amount was determined, and corrected it as production amount per protein amount. As a control, groups not containing the compounds are prepared.
(In an ELISA, binding on a coated surface is turned into a signal by an enzyme label.)

The test system of series [2] is Hep3B cells. The series can be described thus: EPO protein produced by Hep3B cells under hypoxia (1% O2), ELISA (Test Example 1). It counts as cell-based. The following applies: 1% O2, 24 hrs. How it is done: (§1) Hep3B cells producing EPO under hypoxic condition were used. The cells were inoculated onto a 100 mm petri dish by 1.5-3.0×10^6. As a culture medium, 10 ml of Dulbecco's Modified Eagles' Medium (DMEM)/10% Fetal Calf Serum (FCS) was used. The next day, the culture medium was exchanged, and compound of Preparation Example 13 (final concentration: 100 nM) was added, then cells were cultured under 1% O2 at 37° C. for 24 hrs. Groups were prepared in which IL-1β (final concentration: 15 U/ml) or TNF-α (final concentration: 220 U/ml), of which EPO production suppressing action is known (Faquin W C, Schneider T J, Goldgerg M A, Blood, 79(8): 1987-94 (1992)), were used solely or in combination with compound of Preparation Example 13 (final concentration: 100 nM). […] The amount of EPO in the supernatant obtained after the culture was measured by ELISA (each group; n=3). The enhancer site and promoter site (144 bp) of a human EPO gene were linked to luciferase reporter vector, which was used for measuring the EPO promoter activity. The EPO promoter activity was evaluated as follows.
(§2) The data obtained were analyzed and evaluated by Student's t-test.

A further series deals with anemia model mice. The series can be described thus: In vivo mice anemia model with IL-1β or TNF-α suppressed EPO production (Test Example 3). Further details: species or system mouse. The method, then:
ICR mice (available from CLEA Japan Inc.) were made to be anemia by taking blood samples by 0.3 mL at a time from the orbital vein of the mouse by use of a heparin-coated microcapillary by 4 times in every 12 hours from 2 days before administering the agents. Further, 1.67×10^4 unit/day of mouse IL-1β (Roche Diagnostics) or 3.33×10^5 unit/day of mouse TNF-α (Roche Diagnostics) was injected intraperitoneally on day 0-3 (the first day of administration of agents was defined as […]) to induce a suppressed condition of EPO production. To these mice, Preparation Example 13 compound dissolved in 50% polyethylene glycol solution was administered orally by 1 or 3 mg/kg/day on day 0-5. As a control, 50% polyethylene glycol solution was administered (each group; n=7-15). On day 3 and 6, 0.3 mL of blood was collected, and hematocrit (Ht) value, hemoglobin (Hb) concentration (Celltac a: NIHON KOHDEN), EPO amount (ELISA kit: Roche Diagnostics) were measured. Also, the blood was stained by methylene-blue, and smears were prepared to calculate Reticulocytes value.

Another series deals with human EPO promoter. The series is described as follows: EPO promoter activity, luciferase reporter in Hep3B cells, 1% O2 vs 21% O2 (Test Example 1). It counts as cell-based. Conditions: 24 hrs. The method, then:
as §1
1×10^6 Hep3B cells were inoculated on 30 mm petri dish (4 mL:DMEM/10% FCS), and a reporter gene (2 μg) as well as P-galactosidase gene (1 μg) as an internal standard were transfected into the cells by the lipofectin method. The next day, the culture medium was exchanged and the groups, whose group-composition was similar to the above (control group (containing no agents), IL-1β group (final concentration: 15 U/ml), TNF-α (final concentration: 220 U/ml), compound of Preparation Example 13 (final concentration: 100 nM), or a combination of compound of Preparation Example 13 and IL-1β or TNF-α) were cultured under 1% O2 or 21% O2 (as a control) at 37° C. for 24 hrs (for each group; n=4). The extract of the cells after cultured were prepared, then luciferase activity and β galactosidase activity were measured. The EPO promoter activity was expressed by the formula: […]
as §2
A general note: Reporter assays use an easily measured gene product as a stand-in for the process of interest.

In the case of `COc1cc(-c2cc(CN3CCC(N(Cc4ccnc(-c5cc(OC)c(OC)c(OC)c5)c4)c4ccc5c(c4)OCO5)CC3)ccn2)cc(OC)c1OC` [Preparation Example 29, 4-[N-(3,4-methylenedioxyphenyl)-N-[[2-(3,4,5-trimethoxyphenyl)pyridin-4-yl]methyl]amino]-1-[[2-(3,4,5-trimethoxyphenyl)pyridin-4-yl]methyl]piperidine Trihydrochloride], the “Increasing action of EPO production (amount of EPO per protein amount)” value with Hep3B cells [1] was 10.5 mU/mg Protein.
On the same count and under the same terms, next, `COc1cc(OC)cc(N(Cc2ccnc(-c3cc(OC)c(OC)c(OC)c3)c2)C2CCN(Cc3ccnc(-c4cc(OC)c(OC)c(OC)c4)c3)CC2)c1` [Preparation Example 23, 4-[N-(3,5-dimethoxyphenyl)-N-[[2-(3,4,5-trimethoxyphenyl)pyridin-4-yl]methyl]amino]-1-[[2-(3,4,5-trimethoxyphenyl)pyridin-4-yl]methyl]piperidine Trihydrochloride]: 13.9 mU/mg Protein; `COc1cc(-c2cc(CN3CCC(N(C)Cc4ccnc(-c5cc(OC)c(OC)c(OC)c5)c4)CC3)ccn2)cc(OC)c1OC` [Preparation Example 36, 4-[N-methyl-N-[[2-(3,4,5-trimethoxyphenyl)pyridin-4-yl]methyl]amino]-1-[[2-(3,4,5-trimethoxyphenyl)pyridin-4-yl]methyl]piperidine Tetrahydrochloride]: 10.0 mU/mg Protein.
As to TNF-α, the “amount of the produced EPO protein” value in the series with Hep3B cells [2] (TNF-α 220 U/ml alone) amounted to 180.8±24.6 mU/mg protein. Besides, the Hb amount in the series on anemia model mice (day 3, TNF-α i.p. alone (control 13.8±0.6)) stood at 12.6 ± 0.7 g/dL; in the series with anemia model mice (day 6, TNF-α i.p. alone (control 14.8±0.8)) it was 13.1 ± 0.5 g/dL. The “EPO amount in serum” value was found to be 2.7±4.6 mU/mL with anemia model mice (day 3, TNF-α i.p. alone (control 23.7±31.0)) and 3.3±6.0 mU/mL in the series on anemia model mice (day 6, TNF-α i.p. alone (control 24.8±33.8)). Also, the reticulocyte value worked out at 14.2±3.4% in the series with anemia model mice (day 3, TNF-α i.p. alone (control 32.1±4.4)) and 9.4±3.3% with anemia model mice (day 6, TNF-α i.p. alone (control 16.3±3.1)). The Ht value in the series on anemia model mice (day 3, TNF-α i.p. alone (control 42.2±3.6)) was found to be 38.3±2.5%; in the series on anemia model mice (day 6, TNF-α i.p. alone (control 46.4±2.9)), 41.6±1.8%. Moreover, the “human EPO promoter activity (HI)” value in the series on human EPO promoter (TNF-α 220 U/ml alone) is given as 20.7±4.1 fold.
Take `COc1cc(-c2cncc(CN(c3ccc(SC)cc3)C3CCN(Cc4ccnc(-c5cc(OC)c(OC)c(OC)c5)c4)CC3)c2)cc(OC)c1OC` [Preparation Example 114]: the “Increasing action of EPO production (amount of EPO per protein amount)” value with Hep3B cells [1] is 14.9 mU/mg Protein.

B1: IL-1β: "IL-1β (final concentration: 15 U/ml) ... of which EPO production suppressing action is known"; "mouse IL-1β (Roche Diagnostics)" in vivo (protein, UniProt P10749 118-269, looked up)
Interleukin-1 beta: VPIRQLHYRLRDEQQKSLVLSDPYELKALHLNGQNINQQVIFSMSFVQGEPSNDKIPVALGLKGKNLYLSCVMKDGTPTLQLESVDPKQYPKKKMEKRFVFNKIEVKSKVEFESAEFPNWYISTSQAEHKPVFLGNNSGQDIIDFTMESVSS
Regarding B1, the “amount of the produced EPO protein” value with Hep3B cells [2] (IL-1β 15 U/ml alone) is reported as 233.3±19.4 mU/mg protein. Further, the Hb amount is 12.3 ± 0.8 g/dL in the series with anemia model mice (day 3, IL-1β i.p. alone (control 13.8±0.6)) and 13.5 ± 0.5 g/dL with anemia model mice (day 6, IL-1β i.p. alone (control 14.8±0.8)). In addition, the “EPO amount in serum” value with anemia model mice (day 3, IL-1β i.p. alone (control 23.7±31.0)) is given as 5.9±14.3 mU/mL; in the series on anemia model mice (day 6, IL-1β i.p. alone (control 24.8±33.8)), 2.9±5.0 mU/mL. Besides, the reticulocyte value in the series on anemia model mice (day 3, IL-1β i.p. alone (control 32.1±4.4)) was determined as 15.4±3.5%; in the series with anemia model mice (day 6, IL-1β i.p. alone (control 16.3±3.1)) it was 12.2±2.0%. Moreover, the Ht value in the series with anemia model mice (day 3, IL-1β i.p. alone (control 42.2±3.6)) came out at 36.0±3.0%; with anemia model mice (day 6, IL-1β i.p. alone (control 46.4±2.9)), 40.9±1.5%. Moreover, in the series on human EPO promoter (IL-1β 15 U/ml alone), the “human EPO promoter activity (HI)” value is recorded as 19.9±6.5 fold.
